Reference: patent US20260256792A1, “TREATMENT OF CHRONIC SPONTANEOUS URTICARIA BY ADMINISTERING (R)-2-[3-[4-AMINO-3-(2-FLUORO-4-PHENOXY-PHENYL)PYRAZOLO[3,4-D]PYRIMIDIN-1-YL]PIPERIDINE-1-CARBONYL]-4-METHYL-4-[4-(OXETAN-3-YL)PIPERAZIN-1-YL]PENT-2-ENENITRILE” (priority 2023, published 2026)

System: moderate-to-severe chronic spontaneous urticaria (CSU)
Experiment: Phase 2 CSU study: hives severity score over 7 days (HSS7)
Type: in vivo, human
Design: key to HSS7 Change from baseline, Median / HSS7, Median / HSS7, Max / HSS7 Change from baseline, Q1 / HSS7 Change from baseline, Q3 / HSS7 Change from baseline, Max: 7-day sum of daily hive scores, each 0 = none to 3 = >50 hives
Text: The study comprises a 12 week, randomized, double-blind, placebo-controlled, multi-center, dose-ranging efficacy and safety phase, followed by a 40 week open label extension (OLE) phase (see FIG. 1).
The study consists of three phases and an optional OLE phase.
The UAS is a validated PRO measure. The daily UAS is the sum of the daily Hive Severity Score (HSS, ranging from 0=None to 3=more than 50 hives) and the daily Itch Severity Score (ISS, ranging from 0=None to 3=intense), the 2 key urticaria signs and symptoms which are wheals and itch. The daily UAS scores range from 0 to 6 point/day. Daily UAS scores are summed over 7-day period to create the UAS7, ranging from 0 to 42, and are composed of the HSS7 and ISS7 components. […] Patients were to complete the UAS using the e-diary. The e-diary was to be used once daily on the same time of each day recording of participant's answers to the urticaria activity score over 7 days (UAS7) questionnaire. For participants who entered the OLE phase, their answers to the UAS7 questionnaire were also to be collected from Week 20 to Week24 and from Week 48 to Week 52.
The following secondary endpoints were to be analyzed using the same approach as for the primary endpoint: • Change from baseline in UAS7 at Week 4 • Change from baseline in UAS7 at Week 12 (for US and US reference countries) • Change from baseline in ISS7 at Week 12 (except US and US reference countries) • Change from baseline in HSS7 at Week 12

[1] = Week 1, 400 mg BID, Omalizumab-Naïve Population
[2] = Week 1, 400 mg BID, Patients with Prior Omalizumab Use
[3] = Week 1, 400 mg QPM, Omalizumab-Naïve Population
[4] = Week 1, 400 mg QPM, Patients with Prior Omalizumab Use
[5] = Week 1, 400 mg TID, Omalizumab-Naïve Population
[6] = Week 1, 400 mg TID, Patients with Prior Omalizumab Use
[7] = Week 2, 400 mg BID, Omalizumab-Naïve Population
[8] = Week 2, 400 mg BID, Patients with Prior Omalizumab Use
[9] = Week 2, 400 mg QPM, Omalizumab-Naïve Population
[10] = Week 2, 400 mg QPM, Patients with Prior Omalizumab Use
[11] = Week 2, 400 mg TID, Omalizumab-Naïve Population
[12] = Week 2, 400 mg TID, Patients with Prior Omalizumab Use
[13] = Week 3, 400 mg BID, Omalizumab-Naïve Population
[14] = Week 3, 400 mg BID, Patients with Prior Omalizumab Use
[15] = Week 3, 400 mg QPM, Omalizumab-Naïve Population
[16] = Week 3, 400 mg QPM, Patients with Prior Omalizumab Use
[17] = Week 3, 400 mg TID, Omalizumab-Naïve Population
[18] = Week 3, 400 mg TID, Patients with Prior Omalizumab Use

CC(C)(C=C(C#N)C(=O)N1CCC[C@@H](n2nc(-c3ccc(Oc4ccccc4)cc3F)c3c(N)ncnc32)C1)N1CCN(C2COC2)CC1 [rilzabrutinib, (R)-2-[3-[4-amino-3-(2-fluoro-4-phenoxy-phenyl)pyrazolo[3,4-d]pyrimidin-1-yl]piperidine-1-carbonyl]-4-methyl-4-[4-(oxetan-3-yl)piperazin-1-yl]pent-2-enenitrile]
HSS7 change from baseline at Week 12, LS Mean Diff vs. placebo (Omalizumab-naïve Population, 400 mg TID, ANCOVA): −3.24 | HSS7, Mean (SD) [1]: 9.26 (5.76) | HSS7 Change from baseline, Mean (SD) [1]: −5.02 (4.53) | HSS7 Change from baseline, Median [1]: −5.00 | HSS7 Percent change from baseline, Mean (SD) [1]: −36.53 (34.65) % | HSS7 Percent change from baseline, Median [1]: −28.57% | HSS7, Mean (SD) [2]: 9.67 (6.41) | HSS7 Change from baseline, Mean (SD) [2]: −5.50 (6.41) | HSS7 Change from baseline, Median [2]: −3.00 | HSS7 Percent change from baseline, Mean (SD) [2]: −34.45 (41.48) % | HSS7 Percent change from baseline, Median [2]: −17.65% | HSS7, Mean (SD) [3]: 10.73 (4.90) | HSS7 Change from baseline, Mean (SD) [3]: −4.00 (4.92) | HSS7 Change from baseline, Median [3]: −3.00 | HSS7 Percent change from baseline, Mean (SD) [3]: −25.31 (29.00) % | HSS7 Percent change from baseline, Median [3]: −20.00% | HSS7, Mean (SD) [4]: 12.00 (NC) | HSS7, Median [4]: 12.00 | HSS7 Change from baseline, Mean (SD) [4]: −8.00 (NC) | HSS7 Change from baseline, Median [4]: −8.00 | HSS7 Percent change from baseline, Mean (SD) [4]: −40.00 (NC) % | HSS7 Percent change from baseline, Median [4]: −40.00% | HSS7, Mean (SD) [5]: 8.26 (4.91) | HSS7, Median [5]: 8.00 | HSS7 Change from baseline, Mean (SD) [5]: −5.40 (5.44) | HSS7 Change from baseline, Median [5]: −5.00 | HSS7 Percent change from baseline, Mean (SD) [5]: −36.74 (35.15) % | HSS7 Percent change from baseline, Median [5]: −33.33% | HSS7, Mean (SD) [6]: 4.83 (3.31) | HSS7, Median [6]: 4.50 | HSS7 Change from baseline, Mean (SD) [6]: −11.19 (4.74) | HSS7 Percent change from baseline, Mean (SD) [6]: −70.33 (16.48) % | HSS7 Percent change from baseline, Median [6]: −71.43% | HSS7, Mean (SD) [7]: 9.27 (5.49) | HSS7, Median [7]: 7.50 | HSS7 Change from baseline, Mean (SD) [7]: −5.10 (4.74) | HSS7 Change from baseline, Median [7]: 5.50 | HSS7 Percent change from baseline, Mean (SD) [7]: −35.29 (34.55) % | HSS7 Percent change from baseline, Median [7]: −37.50% | HSS7, Mean (SD) [8]: 8.17 (7.08) | HSS7, Median [8]: 9.50 | HSS7 Change from baseline, Mean (SD) [8]: −7.00 (8.15) | HSS7 Change from baseline, Median [8]: −4.50 | HSS7 Percent change from baseline, Mean (SD) [8]: −42.16 (46.38) % | HSS7 Percent change from baseline, Median [8]: −26.47% | HSS7, Mean (SD) [9]: 10.90 (4.97) | HSS7 Change from baseline, Mean (SD) [9]: −3.83 (4.91) | HSS7 Change from baseline, Median [9]: 3.00 | HSS7 Percent change from baseline, Mean (SD) [9]: −23.50 (30.60) % | HSS7 Percent change from baseline, Median [9]: −21.43% | HSS7, Mean (SD) [10]: 13.00 (NC) | HSS7, Median [10]: 13.00 | HSS7 Change from baseline, Mean (SD) [10]: −7.00 (NC) | HSS7 Change from baseline, Median [10]: −7.00 | HSS7 Percent change from baseline, Mean (SD) [10]: −35.00 (NC) % | HSS7 Percent change from baseline, Median [10]: −35.00% | HSS7, Mean (SD) [11]: 7.25 (5.05) | HSS7, Median [11]: 7.00 | HSS7 Change from baseline, Mean (SD) [11]: −6.40 (5.94) | HSS7 Change from baseline, Median [11]: −6.00 | HSS7 Percent change from baseline, Mean (SD) [11]: −44.30 (37.78) % | HSS7 Percent change from baseline, Median [11]: −42.86% | HSS7, Mean (SD) [12]: 2.83 (3.31) | HSS7, Median [12]: 1.50 | HSS7 Change from baseline, Mean (SD) [12]: −13.19 (5.74) | HSS7 Change from baseline, Median [12]: −14.00 | HSS7 Percent change from baseline, Mean (SD) [12]: -82.7% | HSS7 Percent change from baseline, Median [12]: −81.38% | HSS7, Mean (SD) [13]: 8.55 (6.09) | HSS7, Median [13]: 7.00 | HSS7 Change from baseline, Mean (SD) [13]: −5.73 (5.31) | HSS7 Change from baseline, Median [13]: −5.00 | HSS7 Percent change from baseline, Mean (SD) [13]: −40.65 (36.39) % | HSS7 Percent change from baseline, Median [13]: −41.67% | HSS7, Mean (SD) [14]: 7.67 (7.00) | HSS7, Median [14]: 7.50 | HSS7 Change from baseline, Mean (SD) [14]: −7.50 (8.22) | HSS7 Change from baseline, Median [14]: −6.00 | HSS7 Percent change from baseline, Mean (SD) [14]: −45.10 (46.71) % | HSS7 Percent change from baseline, Median [14]: −35.29% | HSS7, Mean (SD) [15]: 10.41 (4.97) | HSS7, Median [15]: 9.00 | HSS7 Change from baseline, Mean (SD) [15]: −4.32 (4.60) | HSS7 Change from baseline, Median [15]: −2.00 | HSS7 Percent change from baseline, Mean (SD) [15]: −27.98 (28.68) % | HSS7 Percent change from baseline, Median [15]: −28.57% | HSS7, Mean (SD) [16]: 10.00 (NC) | HSS7 Change from baseline, Mean (SD) [16]: −10.00 (NC) | HSS7 Change from baseline, Median [16]: −10.00 | HSS7 Percent change from baseline, Mean (SD) [16]: −50.00 (NC) % | HSS7 Percent change from baseline, Median [16]: −50.00% | HSS7, Mean (SD) [17]: 7.03 (4.82) | HSS7, Median [17]: 7.00 | HSS7 Change from baseline, Mean (SD) [17]: −6.63 (6.22) | HSS7 Change from baseline, Median [17]: −7.00 | HSS7 Percent change from baseline, Mean (SD) [17]: −47.46 (36.18) % | HSS7 Percent change from baseline, Median [17]: −48.81% | HSS7, Mean (SD) [18]: 3.39 (2.63) | HSS7, Median [18]: 2.67 | HSS7 Change from baseline, Mean (SD) [18]: −12.64 (6.13) | HSS7 Change from baseline, Median [18]: −14.50 | HSS7 Percent change from baseline, Mean (SD) [18]: −76.71 (14.38) % | HSS7 Percent change from baseline, Median [18]: −71.43%
